# Assay results as given in the supplement of paper PMC12137928.
# Counter-ions that a name gives are not always drawn.
# Test system: HCT116
# Conditions: 72 h
# Method in brief: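 For IC50 and maximal efficacy, four-parameter Hill fits were used. Input values were CellTiter-Glo luminescence from HCT116 cells seeded at 250 per well in 1536-well plates, normalized to vehicle (0%) and positive control (-100%). Pattern correction followed normalization.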
SMILES,IC50 cell viability (ICRF193 0 nM) [µM],IC50 cell viability (ICRF193 200 nM) [µM]
O=C(O)CCSC[C@H]1O[C@@H]2O[C@H]3[C@H](O)[C@@H](O)[C@@H](O[C@H]4[C@H](O)[C@@H](O)[C@@H](O[C@H]5[C@H](O)[C@@H](O)[C@@H](O[C@H]6[C@H](O)[C@@H](O)[C@@H](O[C@H]7[C@H](O)[C@@H](O)[C@@H](O[C@H]8[C@H](O)[C@@H](O)[C@@H](O[C@H]9[C@H](O)[C@@H](O)[C@@H](O[C@H]1[C@H](O)[C@H]2O)O[C@@H]9CSCCC(=O)O)O[C@@H]8CSCCC(=O)O)O[C@@H]7CSCCC(=O)O)O[C@@H]6CSCCC(=O)O)O[C@@H]5CSCCC(=O)O)O[C@@H]4CSCCC(=O)O)O[C@@H]3CSCCC(=O)O [Sugammadex],> 45.8,> 45.8
CC1(C)S[C@@H]2[C@H](NC(=O)C(c3ccccc3)S(=O)(=O)O)C(=O)N2[C@H]1C(=O)O (stereo partly drawn) [Sulbenicillin disodium],> 45.8,> 45.8
S=C1SCN(Cc2ccccc2)CN1Cc1ccccc1 [Sulbentine],> 45.8,> 45.8
Nc1ccc(S(=O)(=O)Nc2ccc(Cl)nn2)cc1 [Sulfachloropyridazine],> 45.8,> 45.8
COc1ncnc(NS(=O)(=O)c2ccc(N)cc2)c1OC [Sulfadoxine],> 45.8,> 45.8
Nc1ccc(S(N)(=O)=O)cc1 [Sulfanilamide],> 45.8,> 45.8
Nc1ccc(S(=O)(=O)Nc2ccnn2-c2ccccc2)cc1 [Sulfaphenazole],> 45.8,> 45.8
Nc1ccc(S(=O)(=O)Nc2ccccn2)cc1 [Sulfapyridine],> 45.8,> 45.8
Nc1ccc(S(=O)(=O)Nc2cnc3ccccc3n2)cc1 [Sulfaquinoxaline],> 45.8,> 45.8
O=C(O)c1cc(/N=N/c2ccc(S(=O)(=O)Nc3ccccn3)cc2)ccc1O [Sulfasalazine],> 45.8,> 45.8
Nc1ccc(S(=O)(=O)Nc2nccs2)cc1 [Sulfathiazole],> 45.8,> 45.8
CC(=O)N(c1onc(C)c1C)S(=O)(=O)c1ccc(N)cc1 [Sulfisoxazole acetal],> 45.8,> 45.8
O=C1OC(c2ccc(O)c(S(=O)(=O)O)c2)(c2ccc(O)c(S(=O)(=O)O)c2)c2c(Br)c(Br)c(Br)c(Br)c21 [Sulfobromophthalein],> 45.8,> 45.8
CC1=C(CC(=O)O)c2cc(F)ccc2/C1=C\c1ccc([S+](C)[O-])cc1 (stereo not drawn) [Sulindac],> 45.8,> 45.8
COc1cc(O)c(C(=O)c2ccccc2)cc1S(=O)(=O)O [Sulisobenzone],> 45.8,> 45.8
CC1(C)S[C@@H]2[C@H](NC(=O)[C@H](N)c3ccccc3)C(=O)N2[C@H]1C(=O)OCOC(=O)[C@@H]1N2C(=O)C[C@H]2S(=O)(=O)C1(C)C [Sultamicillin tosylate],> 45.8,> 45.8

SMILES,IC50 cell viability (ICRF193 0 nM) [µM],IC50 cell viability (ICRF193 200 nM) [µM]
CNS(=O)(=O)Cc1ccc2[nH]cc(CCN(C)C)c2c1 [Sumatriptan],> 45.8,> 45.8
O=c1n(Cl)c(=O)n(Cl)c(=O)n1Cl [Symclosene],> 45.8,> 45.8
CNCc1cc(-c2ccccc2F)n(S(=O)(=O)c2cccnc2)c1 [TAK 438],> 45.8,> 45.8
CC[C@H]1OC(=O)[C@H](C)C(=O)[C@H](C)[C@@H](O[C@@H]2O[C@H](C)C[C@H](N(C)C)[C@H]2O)[C@](C)(OC)C[C@@H](C)C(=O)[C@H](C)[C@H]2N(CCCCn3cnc(-c4cccnc4)c3)C(=O)O[C@]12C [TELITHROMYCIN],> 45.8,> 45.8
CC[C@H]1OC(=O)C[C@@H](O)[C@H](C)[C@@H](O[C@@H]2O[C@H](C)[C@@H](O)[C@H](N(C)C)[C@H]2O)[C@@H](CCN2C[C@H](C)C[C@H](C)C2)C[C@@H](C)C(=O)/C=C/C(C)=C/[C@@H]1CO[C@@H]1O[C@H](C)[C@@H](O)[C@@H](OC)[C@H]1OC [TILMICOSIN],> 45.8,> 45.8
NC[C@H]1CC[C@H](C(=O)O)CC1 [TRANEXAMIC ACID],> 45.8,> 45.8
Cc1cc(-c2ccc(/N=N/c3c(S(=O)(=O)O)cc4cc(S(=O)(=O)O)cc(N)c4c3O)c(C)c2)ccc1/N=N/c1c(S(=O)(=O)O)cc2cc(S(=O)(=O)O)cc(N)c2c1O [TRYPAN BLUE],> 45.8,> 45.8
CC[C@H]1OC(=O)C[C@@H](O)[C@H](C)[C@@H](O[C@@H]2O[C@H](C)[C@@H](O[C@H]3C[C@@](C)(O)[C@@H](O)[C@H](C)O3)[C@H](N(C)C)[C@H]2O)[C@@H](CC=O)C[C@@H](C)C(=O)/C=C/C(C)=C/[C@@H]1CO[C@@H]1O[C@H](C)[C@@H](O)[C@@H](OC)[C@H]1OC [TYLOSIN TARTRATE],> 45.8,> 45.8
CN1CC(=O)N2[C@H](c3ccc4c(c3)OCO4)c3[nH]c4ccccc4c3C[C@@H]2C1=O [Tadalafil],> 45.8,> 45.8
O=C(O)c1ccc2nc(-c3cc(Cl)cc(Cl)c3)oc2c1 [Tafamidis],> 45.8,> 45.8
C=Cc1c(C)c2cc3nc(c(CC(=O)N[C@@H](CC(=O)O)C(=O)O)c4[nH]c(cc5nc(cc1[nH]2)C(C)=C5CC)c(C)c4C(=O)O)[C@@H](CCC(=O)O)[C@@H]3C [Talaporfin sodium],> 45.8,> 45.8
C=CCC1(C(C)CC)C(=O)NC(=O)NC1=O (stereo not drawn) [Talbutal],> 45.8,> 45.8
C=CCN1CCc2nc(N)sc2CC1 [Talipexole],> 45.8,> 45.8
CCOc1ccccc1OCCN[C@H](C)Cc1ccc(OC)c(S(N)(=O)=O)c1 [Tamsulosin hydrochloride],> 45.8,> 45.8
O=C1[C@@H]2[C@H]3CC[C@H](C3)[C@@H]2C(=O)N1CCCCN1CCN(c2ncccn2)CC1 [Tandospirone],> 45.8,> 45.8

# The remaining lines, values ahead:
IC50 cell viability (ICRF193 0 nM) [µM],IC50 cell viability (ICRF193 200 nM) [µM],SMILES
> 45.8,> 45.8,CCOC(=O)c1ccc(NC(=O)CN2CCCCC2)cc1 [Sulcaine]
> 45.8,> 45.8,Nc1ccc(S(=O)(=O)NC(=O)c2ccccc2)cc1 [Sulfabenzamide]
> 45.8,> 45.8,Cc1nc(NS(=O)(=O)c2ccc(N)cc2)nc(C)c1Br [Sulfabromomethazine]
> 45.8,> 45.8,CC(=O)NS(=O)(=O)c1ccc(N)cc1 [Sulfacetamide]
> 45.8,> 45.8,CCn1ccc(NS(=O)(=O)c2ccc(N)cc2)nc1=O [Sulfacytine]
> 45.8,> 45.8,COc1cc(NS(=O)(=O)c2ccc(N)cc2)nc(OC)n1 [Sulfadimethoxine]
> 45.8,> 45.8,CCOc1ccc(NS(=O)(=O)c2ccc(N)cc2)nn1 [Sulfaethoxypyridazine]
> 45.8,> 45.8,N=C(N)NS(=O)(=O)c1ccc(N)cc1 [Sulfaguanidine]
> 45.8,> 45.8,COc1nccnc1NS(=O)(=O)c1ccc(N)cc1 [Sulfalene]
> 45.8,> 45.8,Cc1ccnc(NS(=O)(=O)c2ccc(N)cc2)n1 [Sulfamerazine]
> 45.8,> 45.8,COc1cnc(NS(=O)(=O)c2ccc(N)cc2)nc1 [Sulfameter]
> 45.8,> 45.8,Cc1cc(C)nc(NS(=O)(=O)c2ccc(N)cc2)n1 [Sulfamethazine]
> 45.8,> 45.8,Cc1nnc(NS(=O)(=O)c2ccc(N)cc2)s1 [Sulfamethizole]
> 45.8,> 45.8,COc1cc(NS(=O)(=O)c2ccc(N)cc2)nc(C)n1 [Sulfamethomidine]
> 45.8,> 45.8,Cc1cc(NS(=O)(=O)c2ccc(N)cc2)no1 [Sulfamethoxazole]
> 45.8,> 45.8,COc1ccc(NS(=O)(=O)c2ccc(N)cc2)nn1 [Sulfamethoxypyridazine]
> 45.8,> 45.8,COc1cc(NS(=O)(=O)c2ccc(N)cc2)ncn1 [Sulfamonomethoxine]
> 45.8,> 45.8,CC(=O)Nc1ccc(S(=O)(=O)Nc2ccc([N+](=O)[O-])cc2)cc1 [Sulfanitran]
> 45.8,> 45.8,NC(=S)NS(=O)(=O)c1ccc(N)cc1 [Sulfathiourea]
> 45.8,> 45.8,Cc1cc(NS(=O)(=O)c2ccc(N)cc2)nc(C)n1 [Sulfisomidine]
> 45.8,> 45.8,Cc1noc(NS(=O)(=O)c2ccc(N)cc2)c1C [Sulfisoxazole]
> 45.8,> 45.8,NS(=O)(=O)c1ccc(N2CCCCS2(=O)=O)cc1 [Sulthiame]
> 45.8,> 45.8,CCN1CCCC1CNC(=O)c1cc(S(=O)(=O)CC)ccc1OC (stereo not drawn) [Sultopride hydrochloride]
> 45.8,> 45.8,CCOCC(O)COc1ccc(NC(=O)CC[S+](C)C)cc1 (stereo not drawn) [Suplatast tosylate]
> 45.8,> 45.8,CC(C(=O)O)c1ccc(C(=O)c2cccs2)cc1 (stereo not drawn) [Suprofen]
> 45.8,> 45.8,CCOC(=O)[C@H](CCc1ccccc1)N[C@@H](C)C(=O)N1[C@H](C(=O)O)C[C@H]2CCCC[C@@H]21 [TRANDOLAPRIL]
> 45.8,> 45.8,Nc1c2c(nc3ccccc13)CCCC2 [Tacrine hydrochloride]
> 45.8,> 45.8,CN1C(=O)C[C@@H](C(=O)N[C@@H](Cc2c[nH]cn2)C(=O)N2CCC[C@H]2C(N)=O)NC1=O [Taltirelin]
